Consider three compounds from US20240226228A1, “ANTIMICROBIAL PEPTOID HAVING IMPROVED SELECTIVITY AND ANTIMICROBIAL COMPOSITION COMPRISING SAME” (priority 2021, published 2024).

SMILES strings stand for the structures. In brackets after ≈: the same amount, converted by molar mass. Where two headings read alike, the source gives them in different places. Where a SMILES comes first, the peptide text is derived from it. [ ]: non-standard residue; d: D form. Gly(N(CH2)2(3-indolyl)) = O=C(O)CNCCc1c[nH]c2ccccc12; Nspe = C[C@H](NCC(=O)O)c1ccccc1; Nlys = NCCCCNCC(=O)O

Data set [1] in a line: HPLC to confirm peptoid decomposition after counter ion substitution. Format: physicochemical. As to conditions: HPLC at 220 nm; HCl and AcOH. On the procedure:
FIGS. 76 to 83 are the HPLC results for Peptoids 1, 10, 11, 14, 15, 29, 32 and 37 of the present inventive concept to confirm the decomposition of the peptoids after counter ion substitution using (a) HCl and (b) AcOH.
Referring to FIGS. […], HPLC was performed for Peptoids 1, 10, 11, 14, 15, 29, 32 and 37 of the present inventive concept. Since the chloride (HCl) is a stronger acid than TFA, it can decompose acid-vulnerable peptoid compounds.

The nature of data set [2]: in vitro. On the procedure:
(§1) Human lung cells (MRC-5) were purchased from the Korean Cell Line Bank, and human keratinocytes (HaCaT) were purchased from the AmorePacific R&D Center. All cells were grown in a Dulbecco's modified Eagle's medium containing 10% fetal bovine serum under conditions of 5% CO2 and 37° C. To confirm the effect of a peptoid on cell growth, 3-(4,5-dimethylthiazol-2-yl)-5-(3-carboxymethoxyphenyl)-2-(4-sulfophenyl)-2H-tetrazolium (MTS) cell assay was performed to determine cell viability. An aliquot (100 μL) of a batch including 1.3×10^4 MRC-5 cells/mL or 3×10^4 HaCaT cells/mL was dispensed into each well of a 96-well plate. The cells were grown at 37° C. in a 5% CO2 humid atmosphere and allowed to adhere for 24 hours. When the cells reached approximately 70% confluency, the medium was replaced with serial dilutions of the peptoid stock and incubated for 24 hours. 20 μL of a CellTiter 96 aqueous non-radioactive cell proliferation assay reagent (Promega, USA) including a tetrazolium compound was added to each well.
(§2) The contents in the plate were metabolized by incubating at 37° C. for 4 hours. An MTS-formazan product of viable cells was measured at 490 nm using a microplate reader, and cell viability (%) was calculated by Equation 2 below and compared with untreated cells.
(§3) Cell viability (%)=[A/(Acontrol)]×100 [Equation 2]
(§4) In Equation 2, A is the absorbance of a test well, and Acontrol is the average absorbance of a well containing untreated cells.
(§5) The term “nd” shown in Table 19 below is the abbreviation for not determined, and indicates a value that is too small or too large to be measured.

Data set [3] relates to Human lung cells (MRC-5). The data set can be described thus: in vitro. On the procedure: as §1, §2, §3, §4, §5
Data set [4] has as its system human keratinocytes (HaCaT). The data set is described as follows: in vitro. On the procedure: as §1, §2, §3, §4, §5
Data set [5] has as its system S. aureus ATCC 25923. In short, it runs like this:
(§6)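 Cation-adjusted MHB2 cultures (18 h, subcultured 4 h) adjusted to 2×10^5–5×10^5 CFU/mL in medium with 0.02% BSA and 0.001% acetic acid.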

The subject of data set [6] is E. coli ATCC25922. An outline of the steps:
as §6

Data set [7] deals with E. coli KCTC 2411. The data set can be described thus: MIC in multidrug-resistant bacteria, modified microdilution method. Format: cell-based. As to conditions: Table 14. On the procedure: (§7) The MIC of the prepared peptoid in multidrug-resistant bacteria was measured using a modified microdilution method in a Difco Mueller Hinton medium, and a test was performed on a bacterial pathogen panel with resistant and tolerance to general antibiotics.
(§8) Briefly, a medium containing bovine serum albumin and 0.001% acetic acid was used to continuously dilute a peptoid concentrate 10-times stronger than the final concentration. 10 uμL of the 10-time stronger peptoid concentrate and 90 μL of a Muleller Hinton medium were added to each well of a 96-well plate. Bacteria were added to the plate until the final concentration reached 2×10^5 CFU/mL and then incubated at […] overnight. MIC was defined as a concentration at which bacterial growth is not observed.

Data set [8] has as its system Enterobacter SP KCTC 2625. The description is as above. The class given is cell-based. The settings on record: Table 14. On the procedure:
as §7, §8

Data set [9] deals with Enterococcus faecalis KCTC 3511. Described as above. The class given is cell-based. As to conditions: Table 14. On the procedure: as §7, §8
The subject of data set [10] is Enterococcus Faecium KCTC 13225. The data set is described as above. Format: cell-based. As to conditions: Table 14. On the procedure: as §7, §8
The test system of data set [11] is P. aeruginosa KCTC 1637. The data set is described as above. Format: cell-based. The settings on record: Table 14. On the procedure: as §7, §8
In data set [12] the test system is red blood cells. The data set can be described thus: Hemolysis assay. Format: cell-based, Sprague-Dawley mouse. In short, it runs like this: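 Peptoid is mixed with 10% (v/v) PBS-washed erythrocytes (male Sprague-Dawley […], 13 weeks) and held 1 h at 37 °C. Hemolysis is calculated from 540 nm absorbance of the supernatant, with PBS as 0% and Triton X-100 as 100%.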

[13] abbreviates: Table 18, TFA salt vs counter ion-substituted (HCl, AcOH) peptoids.
Where [14] appears, read: Tables 11-13, 24 hours at 37° C., maximum concentration 25 μM.
The mark [15] stands for this setting: Table 18, TFA salt vs counter ion-substituted peptoids.

On to `C[C@@H](c1ccccc1)N(CC(=O)N(CCCCN)CC(=O)N(CCc1c[nH]c2ccccc12)CC(=O)N(CCc1c[nH]c2ccccc12)CC(N)=O)C(=O)CN(CCCCN)C(=O)CN(CCCCN)C(=O)CN(C(=O)CN(C(=O)CN(CCCCN)C(=O)CN(C(=O)CN(C(=O)CNCCCCN)[C@@H](C)c1ccccc1)[C@@H](C)c1ccccc1)[C@@H](C)c1ccccc1)[C@@H](C)c1ccccc1` [Peptoid 29, H-NLys-Nspe-Nspe-NLys-Nspe-Nspe-NLys-NLys-Nspe-NLys-NhTrp-NhTrp-NH2] (H-[Nlys][Nspe][Nspe][Nlys][Nspe][Nspe][Nlys][Nlys][Nspe][Nlys][Gly(N(CH2)2(3-indolyl))][Gly(N(CH2)2(3-indolyl))]-NH2), for which the “peptoid decomposition after counter ion substitution (in words)” value (from here on “peptoid decomposition”) in data set [1] is on record as “almost no peptoid decomposition occurred”. This compound also had a CC50 at 24 h in [2] (human, LC50 HaCaT) of 18.8 µM. Further, in [3], the “lower toxicity against MRC-5 cells compared to the peptoid having a TFA salt” value was found to be 20%. For the same compound, in [4], the “lower toxicity against HaCaT cells compared to the peptoid having a TFA salt” value is 20%. Moreover, the “MIC S. aureus ATCC 25923” value was 12.5 µM in data set [5] (setting [13]) and 6.3 µM (≈ 11.7 µg/mL) in [5] (setting [14]). Moreover, the “MIC E. coli ATCC25922” value turned out to be 6.3 µM in data set [6] (setting [13]) and 6.3 µM (≈ 11.7 µg/mL) in data set [6] (setting [14]). This compound came in with an MIC E. coli KCTC 2411 in data set [7] of 6.3 µM (≈ 11.7 µg/mL). In data set [8], this compound showed an MIC Enterobacter SP KCTC 2625 of 3.1 µM (≈ 5.78 µg/mL). The compound further yielded an MIC Enterococcus faecalis KCTC 3511 in data set [9] of 3.1 µM (≈ 5.78 µg/mL). The compound further returned an MIC Enterococcus Faecium KCTC 13225 in data set [10] of 1.6 µM (≈ 2.98 µg/mL). In [11], this compound gave an MIC P. aeruginosa KCTC 1637 of 50 µM (≈ 93.2 µg/mL).

`C[C@@H](c1ccccc1)N(CC(N)=O)C(=O)CN(CCCCN)C(=O)CN(CCCCN)C(=O)CN(C(=O)CN(C(=O)CN(CCCCN)C(=O)CN(C(=O)CN(C(=O)CN(CCCCN)C(=O)CN(CCc1c[nH]c2ccccc12)C(=O)CN(CCc1c[nH]c2ccccc12)C(=O)CNCCCCN)[C@@H](C)c1ccccc1)[C@@H](C)c1ccccc1)[C@@H](C)c1ccccc1)[C@@H](C)c1ccccc1` [Peptoid 32, H-NLys-NhTrp-NhTrp-NLys-Nspe-Nspe-NLys-Nspe-Nspe-NLys-NLys-Nspe-NH2]: the “peptoid decomposition” value in data set [1] was “almost no peptoid decomposition occurred”. Moreover, the CC50 at 24 h came to 17.1 µM in data set [2] (human, LC50 HaCaT) and 14.5 µM in data set [2] (human, LC50 MRC-5). The “lower toxicity against MRC-5 cells compared to the peptoid having a TFA salt” value in data set [3] is recorded as 20%. Moreover, the “lower toxicity against HaCaT cells compared to the peptoid having a TFA salt” value in data set [4] was found to be 20%. The “MIC S. aureus ATCC 25923” value in data set [5] (ATCC 25923) and in data set [5] (setting [14]) was 3.1 µM (≈ 5.78 µg/mL) in each case. The “MIC E. coli ATCC25922” value in data set [6] (setting [13]) came to 6.3 µM; in data set [6] (setting [14]), 6.3 µM (≈ 11.7 µg/mL). In data set [7], the MIC E. coli KCTC 2411 was 6.3 µM (≈ 11.7 µg/mL). The compound also had an MIC Enterobacter SP KCTC 2625 in data set [8] of 3.1 µM (≈ 5.78 µg/mL). This compound also showed an MIC Enterococcus faecalis KCTC 3511 in data set [9] of 6.3 µM (≈ 11.7 µg/mL). The compound also yielded an MIC Enterococcus Faecium KCTC 13225 in data set [10] of 3.1 µM (≈ 5.78 µg/mL). For the same compound, the MIC P. aeruginosa KCTC 1637 in data set [11] turned out to be 25 µM (≈ 46.6 µg/mL).

As for `C[C@@H](c1ccccc1)N(CC(N)=O)C(=O)CN(C(=O)CN(CCCCN)C(=O)CN(C(=O)CN(C(=O)CN(CCCCN)C(=O)CN(C(=O)CN(C(=O)CN(CCCCN)C(=O)CN(C(=O)CN(C(=O)CNCCCCN)[C@@H](C)c1ccccc1)[C@@H](C)c1ccccc1)[C@@H](C)c1ccccc1)[C@@H](C)c1ccccc1)[C@@H](C)c1ccccc1)[C@@H](C)c1ccccc1)[C@@H](C)c1ccccc1` [Peptoid 1, H-NLys-Nspe-Nspe-NLys-Nspe-Nspe-NLys-Nspe-Nspe-NLys-Nspe-Nspe-NH2, reference compound] (H-[Nlys][Nspe][Nspe][Nlys][Nspe][Nspe][Nlys][Nspe][Nspe][Nlys][Nspe][Nspe]-NH2), the “peptoid decomposition” value in data set [1] was “almost no peptoid decomposition occurred”. Also, the HC10 in data set [12] (setting [15]) was 15.9 µM; in [12] (Tables 11-13, concentration that induces hemolysis in 10% red blood cells) it was 8.3 µM. Moreover, the HC50 turned out to be 49.0 µM in data set [12] (setting [15]) and 22.9 µM in data set [12] (Tables 11-13, concentration that induces hemolysis in 50% red blood cells). The “Hmax (100 μM)” value amounted to 72.1 ± 2.1% in [12] (setting [15]); 112.3 ± 0.7% in data set [12] (Tables 11-13, hemolysis rate at maximum peptoid concentration); 75.8 in [12] (hemolysis at 100 μM). For the same compound, the HD10 in data set [12] (first value of HD10/HD50 cell, hemolysis, in µM) came to 22.9. Besides, the HD50 in data set [12] (second value of HD10/HD50 cell, hemolysis, in µM) turned out to be 79.0. Also, the CC50 at 24 h in data set [2] came out at 7.3 µM; in data set [2] (LC50 MRC-5, 24 hours incubation, concentration that causes 50% cell lethality), 8.1 µM. For the same compound, the “MIC S. aureus ATCC 25923” value in [5] (setting [13]) came out at 1.6 µM; in data set [5] (setting [14]), 1.6 µM (≈ 2.91 µg/mL); in data set [5] (gram-positive bacteria, S. aureus ATCC25923 strain), 1.6 µM (≈ 2.91 µg/mL). Also, the “MIC E. coli ATCC25922” value in [6] (setting [13]) stood at 6.3 µM; in data set [6] (setting [14]), 6.3 µM (≈ 11.5 µg/mL); in data set [6] (gram-negative bacteria, E. coli ATCC25922 strain), 3.1 µM (≈ 5.64 µg/mL). This compound also came in with an MIC E. coli KCTC 2411 in [7] of 6.3 µM (≈ 11.5 µg/mL). In addition, the MIC Enterobacter SP KCTC 2625 in data set [8] was determined as 6.3 µM (≈ 11.5 µg/mL). This compound also registered an MIC Enterococcus faecalis KCTC 3511 in [9] of 0.8 µM (≈ 1.46 µg/mL). The MIC Enterococcus Faecium KCTC 13225 in data set [10] was less than 0.8 µM. The MIC P. aeruginosa KCTC 1637 in data set [11] turned out to be 25 µM (≈ 45.5 µg/mL).
